Data taken from ChEMBL document CHEMBL1133837, “Discovery of selective hydroxamic acid inhibitors of tumor necrosis factor-alpha converting enzyme” (Bioorg Med Chem Lett, 2001).

Legend:
[1] = biological target: T1, Interstitial collagenase (Homo sapiens, UniProt P03956)
T1 sequence (P03956 whole entry): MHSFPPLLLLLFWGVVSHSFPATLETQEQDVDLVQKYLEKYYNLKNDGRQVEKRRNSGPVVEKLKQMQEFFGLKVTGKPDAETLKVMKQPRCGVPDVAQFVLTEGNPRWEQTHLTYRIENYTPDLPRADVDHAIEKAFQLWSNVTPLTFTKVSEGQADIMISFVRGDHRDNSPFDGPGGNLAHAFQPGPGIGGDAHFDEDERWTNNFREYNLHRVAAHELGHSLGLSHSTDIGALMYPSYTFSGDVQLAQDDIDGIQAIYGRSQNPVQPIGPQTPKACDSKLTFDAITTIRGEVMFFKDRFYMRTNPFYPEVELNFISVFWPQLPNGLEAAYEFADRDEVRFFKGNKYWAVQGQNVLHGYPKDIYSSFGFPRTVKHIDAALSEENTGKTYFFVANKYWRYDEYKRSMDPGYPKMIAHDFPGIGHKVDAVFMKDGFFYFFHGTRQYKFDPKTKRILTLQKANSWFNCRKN

[2] = biological target: 72 kDa type IV collagenase (Homo sapiens, UniProt P08253)
72 kDa type IV collagenase, sequence (P08253 whole entry, the tested form may be a part): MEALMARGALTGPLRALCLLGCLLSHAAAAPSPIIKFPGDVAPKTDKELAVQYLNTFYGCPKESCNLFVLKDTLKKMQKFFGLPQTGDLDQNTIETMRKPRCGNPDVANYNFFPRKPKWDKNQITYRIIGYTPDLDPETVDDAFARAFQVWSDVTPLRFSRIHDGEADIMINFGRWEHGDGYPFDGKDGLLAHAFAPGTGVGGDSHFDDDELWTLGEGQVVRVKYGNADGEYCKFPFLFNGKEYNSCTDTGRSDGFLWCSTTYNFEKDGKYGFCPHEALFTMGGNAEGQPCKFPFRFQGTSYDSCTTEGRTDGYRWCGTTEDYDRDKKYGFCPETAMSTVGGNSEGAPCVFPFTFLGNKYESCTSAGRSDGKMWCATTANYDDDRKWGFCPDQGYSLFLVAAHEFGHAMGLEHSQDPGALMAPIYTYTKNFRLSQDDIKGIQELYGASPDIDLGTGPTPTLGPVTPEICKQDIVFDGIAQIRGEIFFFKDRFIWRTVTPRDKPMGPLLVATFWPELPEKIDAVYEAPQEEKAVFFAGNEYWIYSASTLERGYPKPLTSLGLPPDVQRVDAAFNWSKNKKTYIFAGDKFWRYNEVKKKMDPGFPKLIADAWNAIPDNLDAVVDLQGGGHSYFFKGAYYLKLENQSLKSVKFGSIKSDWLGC

[3] = biological target: T2, Disintegrin and metalloproteinase domain-containing protein 17 (Homo sapiens, UniProt P78536)
T2 sequence (P78536 whole entry, the tested form may be a part): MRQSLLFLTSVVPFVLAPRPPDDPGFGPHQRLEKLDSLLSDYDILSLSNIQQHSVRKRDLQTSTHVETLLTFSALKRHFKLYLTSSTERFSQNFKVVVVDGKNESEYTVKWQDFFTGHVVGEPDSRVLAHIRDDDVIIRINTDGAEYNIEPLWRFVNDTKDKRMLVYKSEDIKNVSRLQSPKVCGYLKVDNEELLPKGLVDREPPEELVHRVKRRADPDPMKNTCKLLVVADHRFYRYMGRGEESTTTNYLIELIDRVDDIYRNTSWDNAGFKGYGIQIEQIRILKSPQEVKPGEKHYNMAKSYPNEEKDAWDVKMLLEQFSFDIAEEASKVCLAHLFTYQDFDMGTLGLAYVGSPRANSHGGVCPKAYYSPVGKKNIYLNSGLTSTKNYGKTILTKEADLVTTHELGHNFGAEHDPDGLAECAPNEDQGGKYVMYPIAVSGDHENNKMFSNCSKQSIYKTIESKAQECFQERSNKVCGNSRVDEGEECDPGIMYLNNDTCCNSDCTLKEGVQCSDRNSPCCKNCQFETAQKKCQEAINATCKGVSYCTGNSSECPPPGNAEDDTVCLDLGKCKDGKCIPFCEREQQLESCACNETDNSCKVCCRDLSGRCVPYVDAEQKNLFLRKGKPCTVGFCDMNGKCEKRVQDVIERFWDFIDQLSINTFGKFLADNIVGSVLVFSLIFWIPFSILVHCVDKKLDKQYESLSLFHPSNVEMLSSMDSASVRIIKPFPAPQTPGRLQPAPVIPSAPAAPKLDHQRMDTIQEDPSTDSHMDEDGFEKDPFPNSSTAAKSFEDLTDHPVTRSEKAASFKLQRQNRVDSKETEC

[4] = biological target: T2, Disintegrin and metalloproteinase domain-containing protein 17; format: functional, cell-based, THP-1

IC50 [1]	IC50 [2]	IC50 [3]	IC50 [4]	SMILES
> 10000 nM				COc1cc(CCC[C@H]2C(=O)N[C@H](C(=O)c3ccccc3)Cc3ccc(cc3)OCCCC[C@@H]2C(=O)NO)cc(OC)c1
> 10000 nM	3400 nM	180 nM		COc1cc(Oc2ccc(SCC(C)C(=O)NO)cc2)cc(OC)c1OC (stereo not drawn)
		3.4 nM	440 nM	CNC(=O)[C@@H]1Cc2ccc(cc2)OCCCC[C@H](C(=O)NO)[C@@H](CCCc2ccc(Cl)cc2)C(=O)N1
		6.8 nM	4100 nM	CNC(=O)[C@@H]1Cc2ccc(cc2)OCCCC[C@H](C(=O)NO)[C@@H](CCCc2cc(OC)ccc2OC)C(=O)N1
26 nM	21 nM			COc1cc(Oc2ccc(S(=O)(=O)N3CCSC(C)(C)[C@@H]3C(=O)NO)cc2)cc(OC)c1OC
> 1000 nM				CNC(=O)[C@@H]1Cc2ccc(cc2)OCCCC[C@H](C(=O)NO)[C@@H](CCCc2cc(C)cc(C(C)C)c2)C(=O)N1
> 10000 nM		33 nM	300 nM	CNC(=O)[C@@H]1Cc2ccc(cc2)OCCCC[C@H](C(=O)NO)[C@@H](CCCc2cc(C(F)(F)F)cc(C(F)(F)F)c2)C(=O)N1
5.7 nM				CC1(C)SCCN(S(=O)(=O)c2ccc(Oc3cccnc3)cc2)[C@H]1C(=O)NO
		87 nM	> 5000 nM	O=C(c1ccccc1)[C@@H]1Cc2ccc(cc2)OCCCC[C@H](C(=O)NO)[C@@H](CCCc2cc(Br)cc(Br)c2)C(=O)N1
> 10000 nM		74 nM	15000 nM	COCCOc1cc(CCC[C@H]2C(=O)N[C@H](C(=O)c3ccccc3)Cc3ccc(cc3)OCCCC[C@@H]2C(=O)NO)cc(OC)c1
> 10000 nM				COc1cc(CCC[C@H]2C(=O)N[C@H](C(=O)c3ccccc3)Cc3ccc(cc3)OCCCC[C@@H]2C(=O)NO)cc(OC)c1OC
> 10000 nM	430 nM			COc1cc(Oc2ccc(S(=O)(=O)CC(C)C(=O)NO)cc2)cc(OC)c1OC (stereo not drawn)
